For 23 compounds, EC50 results are on record in patent US10975078B2, “Fused indazole pyridone compounds as antivirals” (priority 2017, dated 2021).

Where two headings read alike, the source gives them in different places.

This assay concerns HBsAg secretion, HepG2-Clone42 cells (Tet-inducible HBV-expressing, HBV ayw strain). Briefly: HBsAg assay (HBsAg ELISA, secreted HBV sAg from HepG2-Clone42 cells). It counts as cell-based. As to the method:
HepG2-Clone42, a Tet-inducible HBV-expressing cell line with a stably integrated 1.3 mer copy of the HBV ayw strain, was generated based on the Tet-inducible HepAD38 cell line with slight modifications. Ladner S K, et al., Antimicrobial Agents and Chemotherapy. 41(8):1715-1720 (1997). HepG2-Clone42 cells were cultured in DMEM/F-12+Glutamax™ (Life Technologies, Carlsbad, Calif., USA), supplemented with 10% fetal bovine serum (Life Technologies), G-418 (Corning, Manassas, Va., USA) at a final concentration of 0.5 mg/mL, and 5 μg/mL Doxycycline (Sigma, St. Louis, Mo., USA) and maintained in 5% CO2 at 37° C.
HepG2-Clone42 cells were seeded into black clear-bottom 96-well plates at a concentration of 6.0×10^4 cells/well. 24 hours post-seeding, the cells were treated with 200 μl/well of media containing five-fold serial dilutions of compounds in DMSO. DMSO alone was used as the no drug control. The final DMSO concentration in all wells was 0.5%.
The HBsAg ELISA kit (Alpha Diagnostic International, San Antonio, Tex., USE, Catalog #4110) was used to determine the level (semi-quantitative) of secreted HBV sAg. The HBSAg ELISA assay was performed following the manufacturer's protocol as described.
Step 1. Pipet 100 μL each of compound or DMSO treated samples into HBsAg ELISA plates. Seal plates and incubate at room temp for 60 minutes.
Step 2. Aspirate samples and wash three times with Wash Buffer. Dispense 100 μL of antibody-HRP conjugate to each well. Incubate at room temp for 30 minutes.
Step 3. Aspirate samples and wash three times with Wash Buffer. Add 100 μL of TMB Substrate to all wells and incubate 15 minutes at room temp.
Step 4. Dispense 100 μL of Stop Solution to each well. Measure absorbance of ELISA plate at 450 nm.
Dose-response curves were generated and the EC50 value was defined as the compound concentration at which HBsAg secretion was reduced 50% compared to the DMSO control.
EC50 values were determined as follows:
Determine the percent of HBsAg secretion inhibition. Calculate the percent inhibition on of HBsAg secretion inhibition using the following equation: […]
where XC is the absorbance signal from compound-treated well; MB is average absorbance signal (background signal) for column 12 (no cells+HBsAg ELISA sample buffer) and MD is average absorbance signal from DMSO-treated wells. Then calculate EC50 values by non-linear regression using a four parameter curve logistic equation.
The curve fit model employed is XLFit Dose Response One Site Model 204: y=(A+((B−A)/(1+(10^((C−x)*D))))) where A is the minimum y value, B is the maximum y value, C is the log EC50 value, and D is the slope factor. In the following table+≥100 nM; 100 nM>++≥1 nM; 1 nM>+++

[1] abbreviates: read-out: HBsAg, EC50 = concentration at which HBsAg secretion was reduced 50% compared to DMSO control.
Where [2] appears, read: Hepatitis B virus, read-out: HBsAg (nM), EC50 = concentration at which HBsAg secretion was reduced 50% compared to DMSO control.

Regarding `COc1cccc2c3n(nc12)CC(C(C)(C)C)n1cc(C(=O)O)c(=O)cc1-3` (single isomer, unassigned) [Example 1.1-II, 6-(tert-butyl)-10-methoxy-2-oxo-6,7-dihydro-2H-pyrido[2′,1′:3,4]pyrazino[1,2-b]indazole-3-carboxylic acid], the EC50 under setting [1] was above 100 nM.
Regarding `COCC(C)Oc1cccc2c3n(nc12)CC(C(C)(C)C)n1cc(C(=O)O)c(=O)cc1-3` (single isomer, unassigned) [Example 2.35-I, 6-(tert-butyl)-10-((1-methoxypropan-2-yl)oxy)-2-oxo-6,7-dihydro-2H-pyrido[2′,1′:3,4]pyrazino[1,2-b]indazole-3-carboxylic Acid], the EC50 under setting [2] was 1 to 100 nM.
Same read-out and setting: under `CCC(C)Oc1cccc2c3n(nc12)CC(C(C)(C)C)n1cc(C(=O)O)c(=O)cc1-3` (racemic) [Example 2.7, 10-(sec-butoxy)-6-(tert-butyl)-2-oxo-6,7-dihydro-2H-pyrido[2′,1′:3,4]pyrazino[1,2-b]indazole-3-carboxylic acid] stands below 1 nM; under `CC(C)(C)C1Cn2nc3c(OCC4CNC4)cccc3c2-c2cc(=O)c(C(=O)O)cn21` (racemic) [Example 2.32, 10-(azetidin-3-ylmethoxy)-6-(tert-butyl)-2-oxo-6,7-dihydro-2H-pyrido[2′,1′:3,4]pyrazino[1,2-b]indazole-3-carboxylic Acid], above 100 nM.
Consider `COc1ccc2nn3c(c2c1)-c1cc(=O)c(C(=O)O)cn1C(C(C)(C)C)C3` (single isomer, unassigned) [Example 1.3-I, 6-(tert-butyl)-12-methoxy-2-oxo-6,7-dihydro-2H-pyrido[2′,1′:3,4]pyrazino[1,2-b]indazole-3-carboxylic acid], for which the EC50 under setting [1] lay in the range of 1 to 100 nM.
Consider `CC(C)(C)C1Cn2nc3c(OC4CCC4)cccc3c2-c2cc(=O)c(C(=O)O)cn21` (racemic) [Example 2.29, 6-(tert-butyl)-10-cyclobutoxy-2-oxo-6,7-dihydro-2H-pyrido[2′,1′:3,4]pyrazino[1,2-b]indazole-3-carboxylic Acid], for which the EC50 under setting [2] is below 1 nM.
For the compound `CC(C)(C)C1Cn2nc3c(OC[C@H]4CCC(=O)N4)cccc3c2-c2cc(=O)c(C(=O)O)cn21` (single isomer, unassigned) [Example 2.34-I], under setting [2], the EC50 is above 100 nM.
In the case of `COc1cccc2c3n(nc12)CC(C(C)(C)CO)n1cc(C(=O)O)c(=O)cc1-3` (single isomer, unassigned) [Example 3.1-I, 6-(1-hydroxy-2-methylpropan-2-yl)-10-methoxy-2-oxo-6,7-dihydro-2H-pyrido[2′,1′:3,4]pyrazino[1,2-b]indazole-3-carboxylic Acid], the EC50 under setting [1] is above 100 nM.
Turning to `COCC(C)(C)C1Cn2nc3c(OC)cccc3c2-c2cc(=O)c(C(=O)O)cn21` (single isomer, unassigned) [Example 4.1-II, 10-methoxy-6-(1-methoxy-2-methylpropan-2-yl)-2-oxo-6,7-dihydro-2H-pyrido[2′,1′:3,4]pyrazino[1,2-b]indazole-3-carboxylic Acid], the EC50 under setting [1] is above 100 nM.
Take `COCCCOc1cccc2c3n(nc12)C[C@@H](C(C)(C)C)n1cc(C(=O)O)c(=O)cc1-3` [Example 9.1, (R)-6-(tert-butyl)-10-(3-methoxypropoxy)-2-oxo-6,7-dihydro-2H-pyrido[2′,1′:3,4]pyrazino[1,2-b]indazole-3-carboxylic Acid]: under setting [2], the EC50 is below 1 nM.
For the compound `COc1cccc2nn3c(c12)-c1cc(=O)c(C(=O)O)cn1C(C(C)(C)C)C3` (single isomer, unassigned) [Example 1.4-II, 6-(tert-butyl)-13-methoxy-2-oxo-6,7-dihydro-2H-pyrido[2′,1′:3,4]pyrazino[1,2-b]indazole-3-carboxylic acid], the EC50 under setting [1] lay in the range of 1 to 100 nM.
For the compound `CC[C@H](C)COc1cccc2c3n(nc12)CC(C(C)(C)C)n1cc(C(=O)O)c(=O)cc1-3` (mixture of isomers) [Example 2.6, 6-(tert-butyl)-10-((S)-2-methylbutoxy)-2-oxo-6,7-dihydro-2H-pyrido[2′,1′:3,4]pyrazino[1,2-b]indazole-3-carboxylic Acid], under setting [2], the EC50 is below 1 nM.
Same read-out and setting: under `CC(C)(C)C1Cn2nc3c(OCC(=O)O)cccc3c2-c2cc(=O)c(C(=O)O)cn21` (racemic) [Example 2.23, 6-(tert-butyl)-10-(carboxymethoxy)-2-oxo-6,7-dihydro-2H-pyrido[2′,1′:3,4]pyrazino[1,2-b]indazole-3-carboxylic Acid] stands 1 to 100 nM; under `CC(C)(C)C1Cn2nc3c(OCCCS(C)(=O)=O)cccc3c2-c2cc(=O)c(C(=O)O)cn21` (racemic) [Example 2.30, 6-(tert-butyl)-10-(3-(methylsulfonyl)propoxy)-2-oxo-6,7-dihydro-2H-pyrido[2′,1′:3,4]pyrazino[1,2-b]indazole-3-carboxylic Acid], 1 to 100 nM.
Consider `COc1cccc2c3n(nc12)CC(C(C)(C)C)n1cc(C(=O)O)c(=O)cc1-3` (single isomer, unassigned) [Example 1.1-I, 6-(tert-butyl)-10-methoxy-2-oxo-6,7-dihydro-2H-pyrido[2′,1′:3,4]pyrazino[1,2-b]indazole-3-carboxylic acid], for which the EC50 under setting [1] was below 1 nM.
Consider `COc1cccc2c3n(nc12)C1COC(C)(C)C1n1cc(C(=O)O)c(=O)cc1-3` (single isomer, unassigned) [Example 10.1-II, 12-methoxy-3,3-dimethyl-7-oxo-1,3,3a,14a-tetrahydro-7H-furo[3′,4′:5,6]pyrido[2′,1′:3,4]pyrazino[1,2-b]indazole-6-carboxylic Acid], for which the EC50 under setting [1] is 1 to 100 nM.
On to `COCCOCCCOc1cccc2c3n(nc12)CC(C(C)(C)C)n1cc(C(=O)O)c(=O)cc1-3` (racemic) [Example 2.21, 6-(tert-butyl)-10-(3-(2-methoxyethoxy)propoxy)-2-oxo-6,7-dihydro-2H-pyrido[2′,1′:3,4]pyrazino[1,2-b]indazole-3-carboxylic Acid], for which the EC50 under setting [2] is below 1 nM.
`CC(C)(C)C1Cn2nc3c(OCC4(CS(C)(=O)=O)CC4)cccc3c2-c2cc(=O)c(C(=O)O)cn21` (racemic) [Example 2.24, 6-(tert-butyl)-10-((1-((methylsulfonyl)methyl)cyclopropyl)methoxy)-2-oxo-6,7-dihydro-2H-pyrido[2′,1′:3,4]pyrazino[1,2-b]indazole-3-carboxylic Acid]: the EC50 under setting [2] was above 100 nM.
Turning to `CC(C)Oc1cccc2c3n(nc12)CC(C(C)(C)C)n1cc(C(=O)O)c(=O)cc1-3` (single isomer, unassigned) [Example 2.47-II, 6-(tert-butyl)-10-isopropoxy-2-oxo-6,7-dihydro-2H-pyrido[2′,1′:3,4]pyrazino[1,2-b]indazole-3-carboxylic Acid], the EC50 under setting [1] was below 1 nM.
With `CCCOc1cccc2c3n(nc12)CC(C(C)(C)C)n1cc(C(=O)O)c(=O)cc1-3` (racemic) [Example 2.11, 6-(tert-butyl)-2-oxo-10-propoxy-6,7-dihydro-2H-pyrido[2′,1′:3,4]pyrazino[1,2-b]indazole-3-carboxylic Acid], under setting [2], the EC50 is below 1 nM.
As to `CC(C)(C)C1Cn2nc3c(OCCN4CCCC4=O)cccc3c2-c2cc(=O)c(C(=O)O)cn21` (racemic) [Example 2.20, 6-(tert-butyl)-2-oxo-10-(2-(2-oxopyrrolidin-1-yl)ethoxy)-6,7-dihydro-2H-pyrido[2′,1′:3,4]pyrazino[1,2-b]indazole-3-carboxylic Acid], the EC50 under setting [2] was in the range of 1 to 100 nM.
Consider `CC1(COc2cccc3c4n(nc23)CC(C(C)(C)C)n2cc(C(=O)O)c(=O)cc2-4)COC1` (racemic) [Example 2.45, 6-(tert-butyl)-10-((3-methyloxetan-3-yl)methoxy)-2-oxo-6,7-dihydro-2H-pyrido[2′,1′:3,4]pyrazino[1,2-b]indazole-3-carboxylic Acid], for which, under setting [2], the EC50 lay within 1 to 100 nM.
`COCCOc1cccc2c3n(nc12)CC(C(C)(C)C)n1cc(C(=O)O)c(=O)cc1-3` (single isomer, unassigned) [Example 2.2-I, 6-(tert-butyl)-10-(2-methoxyethoxy)-2-oxo-6,7-dihydro-2H-pyrido[2′,1′:3,4]pyrazino[1,2-b]indazole-3-carboxylic Acid]: under setting [1], the EC50 was above 100 nM.
